Laboratory results from ChEMBL document CHEMBL3286181, “Pyridopyrimidinone inhibitors of HIV-1 RNase H” (Eur J Med Chem, 2014).
Converted amounts (≈) assume the structure as drawn. The source made the active and inactive calls. No cut-off for these calls is given here.

Legend:
[1] = biological target: Human immunodeficiency virus type 1 reverse transcriptase (Human immunodeficiency virus 1, UniProt Q72547); test: Inhibition of HIV1 reverse transcriptase RNase-H activity using dATP, dCTP, dTTP, [8-3H(N)]-dGTP, oligo1, oligo 2, oligo 3 as substrate preincubated for 30 mins followed by substrate addition measured after 90 mins
[2] = biological target: T1, Human immunodeficiency virus type 1 integrase (Human immunodeficiency virus 1, UniProt Q7ZJM1); test: Inhibition of recombinant HIV1 integrase bound with donor DNA-SPA beads using [3H] target DNA as substrate assessed as strand transfer activity preincubated for 60 mins followed by substrate addition measured after 25 to 45 mins
[3] = system: Human immunodeficiency virus; test: microbe, parasite or virus in culture; details: Human immunodeficiency virus 1, HEK-293T, 48 h
Description: Antiviral activity against Vesicular stomatitis virus G-pseudotyped HIV infected in human 293T cells transfected with pGJ3-Luci after 2 days by single round infectivity assay

[4] = Permeability across MDCK cells; format: ADME, cell-based, Canis lupus familiaris; details: dog, read-out: permeability
[5] = biological target: Human immunodeficiency virus type 1 reverse transcriptase (Human immunodeficiency virus 1) (UniProt Q72547); test: Inhibition of HIV1 reverse transcriptase DNA polymerase activity up to 10 uM
[6] = Half life in Sprague-Dawley (CD) rat at 1 mg/kg, iv and 5 mg/kg, po; format: ADME, organism-based; details: in vivo
[7] = Solubility of the compound by chemiluminescent nitrogen detection method; format: physicochemical
Rattus norvegicus = test: Dose normalized AUC in Sprague-Dawley (CD) rat at 1 mg/kg, iv; format: ADME, organism-based; parameters: dose 1 mg/kg, route intravenous; details: in vivo
[8] = Clearance in Sprague-Dawley (CD) rat at 1 mg/kg, iv relative to hepatic blood flow; format: ADME, organism-based, Liver; parameters: dose 1 mg/kg, route intravenous; details: in vivo, read-out: CLH
[9] = biological target: T1, Human immunodeficiency virus type 1 integrase; test: Inhibition of recombinant HIV1 N-terminal His6-tagged integrase expressed in Escherichia coli using 32P-labeled preprocessed HIV-1 U5 DNA as substrate assessed as strand transfer activity after 2 hrs by densitometric analysis
[10] = Inhibition of HIV1 reverse transcriptase strand transfer activity
[11] = biological target: T1, Human immunodeficiency virus type 1 integrase; test: Inhibition of HIV1 integrase bound with donor DNA-SPA beads using 3'-end fluorescein isothiocyanate labeled target DNA as substrate assessed as strand transfer activity incubated prior to substrate addition
[12] = biological target: T1, Human immunodeficiency virus type 1 integrase; test: Inhibition of HIV1 integrase strand transfer activity

T1 sequence (Q7ZJM1 whole entry): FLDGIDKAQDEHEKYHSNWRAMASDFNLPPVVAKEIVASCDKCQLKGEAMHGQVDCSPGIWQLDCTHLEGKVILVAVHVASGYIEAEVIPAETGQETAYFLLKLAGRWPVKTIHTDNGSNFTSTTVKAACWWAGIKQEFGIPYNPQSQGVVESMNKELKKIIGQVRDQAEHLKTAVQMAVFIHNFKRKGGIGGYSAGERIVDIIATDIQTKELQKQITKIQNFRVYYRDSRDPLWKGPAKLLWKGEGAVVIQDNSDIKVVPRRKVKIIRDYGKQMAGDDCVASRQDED

Structure (SMILES) | IC50 [1] | IC50 [2] | IC50 [3] | inhibition [5] | AUC/dose (Rattus norvegicus) | also measured
O=c1nc(NCC2CC2)c2cccnc2n1O | 0.398 µM | 3.9 µM | 0.71 µM |  |  | 
O=c1nc(Nc2ccc(CN3CCOCC3)cc2)c2cccnc2n1O | 0.2 µM | 1.3 µM | 0.16 µM | inactive | 226 ng·h/mL/mg | Papp [4]: 0.5 ×10⁻⁶ cm/s; half-life [6]: 0.4 h; solubility [7]: 503 µM (≈ 178 µg/mL); clearance [8]: 70 mL/min/kg
O=c1nc(NCc2ccc(F)cc2)c2cccnc2n1O | 0.158 µM | 3.16 µM |  | inactive |  | 
O=c1nc(NCc2ccc(-c3ccncc3)cc2)c2cccnc2n1O | 0.016 µM | 1.26 µM |  | inactive | 1000 ng·h/mL/mg | 
O=c1nc(NCc2cccc(CN3CCOCC3)c2)c2cccnc2n1O | 0.398 µM | 15.9 µM | 0.3 µM | inactive |  | 
O=c1nc(Nc2ccc(-c3ccccc3)cc2)c2cccnc2n1O |  | 0.79 µM |  | inactive | 2934 ng·h/mL/mg | 
O=c1nc(NCc2ccc(-c3ccccc3)cc2)c2cccnc2n1O | 0.01 µM | 0.63 µM |  | inactive |  | 
O=c1nc(N2CCC(F)(F)CC2)c2cccnc2n1O | 0.501 µM | 7.94 µM |  | inactive |  | 
O=c1nc(NCc2ccc(N3CCOCC3)cc2)c2cccnc2n1O | 0.1 µM | 1.58 µM | 0.47 µM | inactive | 713 ng·h/mL/mg | Papp [4]: 1.4 ×10⁻⁶ cm/s; half-life [6]: 4.5 h; solubility [7]: 293 µM (≈ 104 µg/mL); clearance [8]: 55 mL/min/kg
O=c1nc(NCc2cccc(N3CCOCC3)c2)c2cccnc2n1O | 0.2 µM | 1.99 µM | 0.38 µM | inactive |  | 
O=c1nc(Nc2ccc(-c3ccncc3)cc2)c2cccnc2n1O | 0.079 µM | 1.99 µM |  | inactive | 1942 ng·h/mL/mg | 
O=C(NCc1ccc(Cl)cc1)c1ncc2cccnc2c1O |  |  |  |  |  | IC50 [9]: 20 µM; IC50 [10]: 0.135 µM
O=C(NCc1ccc(F)cc1)c1nc(N2CCCCS2(=O)=O)c2cccnc2c1O |  |  |  |  |  | IC50 [11]: 10 µM
O=C1Cc2ccccc2C(=O)N1O |  |  |  |  |  | IC50 [12]: > 5000 µM
O=c1nc(Nc2ccc(N3CCOCC3)cc2)c2cccnc2n1O | 0.05 µM | 0.5 µM | 0.25 µM | inactive | 314 ng·h/mL/mg | Papp [4]: 0.7 ×10⁻⁶ cm/s; half-life [6]: 2.4 h; solubility [7]: 161 µM (≈ 54.6 µg/mL); clearance [8]: 45 mL/min/kg
